Source: patent EP4656642A1, “ESTROGEN RECEPTOR PROTEOLYSIS TARGETING CHIMERA COMPOUND AND USE THEREOF” (GAN & LEE PHARM CO., LTD, priority 2023, dated 2024)

Columns and labels:
Format in all cases: cell-based
[1] = tested on: MCF-7 cells; test: Inhibition of cell proliferation of MCF-7 cells (CCK-8, 9 days); conditions: treated for 9 days, CCK-8 kit (Table 6)
In short: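 Read-out was CCK-8 viability after 9-day continuous exposure (37°C, 5% CO2) of MCF-7 cells plated at 800/well in 10% FBS DMEM across several compound concentrations. Values are proliferation IC50s.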

[2] = target: T1, ERα (Homo sapiens, UniProt P03372); test: Degradation of ERα in MCF-7 cells (immunoblotting, 4 h)
T1 sequence (P03372 1-595): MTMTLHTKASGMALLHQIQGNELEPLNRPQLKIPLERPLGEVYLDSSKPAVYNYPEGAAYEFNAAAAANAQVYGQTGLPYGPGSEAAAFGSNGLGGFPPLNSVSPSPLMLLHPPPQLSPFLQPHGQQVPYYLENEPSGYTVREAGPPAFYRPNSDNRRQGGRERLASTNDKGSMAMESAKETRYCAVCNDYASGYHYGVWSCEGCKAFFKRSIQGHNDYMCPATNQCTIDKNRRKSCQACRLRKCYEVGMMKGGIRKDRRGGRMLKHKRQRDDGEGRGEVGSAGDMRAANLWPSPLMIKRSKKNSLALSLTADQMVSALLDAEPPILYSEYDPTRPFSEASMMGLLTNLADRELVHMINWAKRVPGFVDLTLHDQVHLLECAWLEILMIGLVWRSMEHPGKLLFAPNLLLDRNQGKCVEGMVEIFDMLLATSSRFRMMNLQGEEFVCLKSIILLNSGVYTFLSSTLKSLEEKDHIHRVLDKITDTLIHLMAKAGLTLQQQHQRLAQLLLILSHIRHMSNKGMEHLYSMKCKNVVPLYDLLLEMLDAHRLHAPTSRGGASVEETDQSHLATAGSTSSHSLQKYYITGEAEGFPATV
In short: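 Degradation rate reflects ERα band intensity, corrected to an internal reference protein, relative to control. Values come from Western blotting of lysates from MCF-7 cells exposed 4 h at 37°C to compounds at final concentrations of 0.15-1000nM.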

[3] = target: T1, ERα; test: Degradation of ERα in T-47D cells (immunoblotting, 4 h); set-up: host or cells: T-47D
In short: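 ERα protein levels were assessed by immunoblot of RIPA lysates (with protease inhibitor) after 4 h exposure at 37°C. Compound was added in DMSO to T-47D cells at final concentrations of 0.15-1000 nM.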

Structure (SMILES) | IC50 [1] | Degradation rate (%) of ERα in MCF-7 cells ([2]; 1nM compound) | Degradation rate (%) of ERα in MCF-7 cells ([2]; 10nM compound) | Degradation rate (%) of ERα in T-47D cells ([3]; 1nM compound) | Degradation rate (%) of ERα in T-47D cells ([3]; 10nM compound)
O=C1CCC(N2Cc3c(ccc4c3OCC43CCN(CC(=O)N4CCC(OC5CCN(c6ccc([C@@H]7c8ccc(O)cc8CC[C@@H]7c7ccccc7)cc6)CC5)CC4)CC3)C2=O)C(=O)N1 (stereo partly shown) [K46] | 85 nM | 54% | 85% | 73% | 90%
O=C1CCC(N2Cc3c(ccc4c3OCC43CCN(C(=O)CN4CCC(OC5CCN(c6ccc([C@@H]7c8ccc(O)cc8CC[C@@H]7c7ccccc7)cc6)CC5)CC4)CC3)C2=O)C(=O)N1 (stereo partly shown) [K47] | 80.2 nM | 57% | 80% | 74% | 89%
O=C1CCC(N2Cc3c(ccc4c3OCC43CCN(C(=O)[C@H]4C[C@H](OC5CCN(c6ccc([C@@H]7c8ccc(O)cc8CC[C@@H]7c7ccccc7)cc6)CC5)C4)CC3)C2=O)C(=O)N1 (stereo partly shown) [K48] | 9210 nM | 20% | 42% | 47% | 80%
O=C1CCC(N2Cc3c(ccc4c3OCC43CCN(C4CCC(OC5CCN(c6ccc([C@@H]7c8ccc(O)cc8CC[C@@H]7c7ccccc7)cc6)CC5)CC4)CC3)C2=O)C(=O)N1 (stereo partly shown) [K50] | 83.3 nM | 19% | 72% | 52% | 84%

More lines, now with the values ahead:

IC50 [1] | Degradation rate (%) of ERα in MCF-7 cells ([2]; 1nM compound) | Degradation rate (%) of ERα in MCF-7 cells ([2]; 10nM compound) | Degradation rate (%) of ERα in T-47D cells ([3]; 1nM compound) | Degradation rate (%) of ERα in T-47D cells ([3]; 10nM compound) | Structure (SMILES)
970 nM | 9% | 48% | 9% | 44% | O=C1CCC(N2C(=O)c3ccc4c(c3C2=O)OCC42CCN(C3CCC4(CC3)CCN(c3ccc([C@@H]5c6ccc(O)cc6CC[C@@H]5c5ccccc5)cc3)CC4)CC2)C(=O)N1 (stereo partly shown) [L4]
830 nM | 6% | 4% | 12% | 45% | O=C1CCC(N2Cc3cc4c(cc3C2=O)C2(CCN(C3CCC5(CC3)CCN(c3ccc([C@@H]6c7ccc(O)cc7CC[C@@H]6c6ccccc6)cc3)CC5)CC2)CO4)C(=O)N1 (stereo partly shown) [L5]
930 nM | 14% | 45% | 29% | 68% | O=C1CCC(N2Cc3ccc4c(c3C2=O)OCC2(CCN(C3CCC5(CC3)CN(c3ccc([C@@H]6c7ccc(O)cc7CC[C@@H]6c6ccccc6)cc3)C5)CC2)C4)C(=O)N1 (stereo partly shown) [L6]
510 nM | 4% | -4% | 11% | 34% | O=C1CCC(N2C(=O)c3ccc4c(c3C2=O)OCC42CCN(C3CCC4(CC3)CN(c3ccc([C@@H]5c6ccc(O)cc6CC[C@@H]5c5ccccc5)cc3)C4)CC2)C(=O)N1 (stereo partly shown) [L7]
1420 nM | 10% | 29% | 15% | 49% | O=C1CCC(N2Cc3ccc4c(c3C2=O)OCC2(CCN(C3CC5(CCN(c6ccc([C@@H]7c8ccc(O)cc8CC[C@@H]7c7ccccc7)cc6)CC5)C3)CC2)C4)C(=O)N1 (stereo partly shown) [L9]
544 nM | -6% | 5% | 13% | 8% | O=C1CCC(N2Cc3c(ccc4c3OCC43CCN(C4CC5(C4)CN(c4ccc([C@@H]6c7ccc(O)cc7CC[C@@H]6c6ccccc6)cc4)C5)CC3)C2=O)C(=O)N1 (stereo partly shown) [L18]
86 nM | 9% | 14% | 12% | 9% | O=C1CCC(N2C(=O)c3ccc4c(c3C2=O)OCC42CCN(C3CC4(C3)CN(c3ccc([C@@H]5c6ccc(O)cc6CC[C@@H]5c5ccccc5)cc3)C4)CC2)C(=O)N1 (stereo partly shown) [L19]
